# Data taken from patent publication US5624956A, “Urea derivatives useful as platelet aggregation inhibitors” (The Monsanto Company, priority 1995, dated 1997).
# Tested on: platelet aggregation (dog platelet-rich plasma)
# Experiment: In-vitro platelet aggregation in PRP (ADP-induced, dog)
# Type: cell-based
# Settings: Canis lupus familiaris, ADP 50 um final concentration; for inhibition at 10 µM: at 10^-5 M, read-out: Dog PRP % Inh; for IC50: preincubation at 37° C., aggregation monitored for 1 minute
# Experimental: IN-VITRO PLATELET AGGREGATION IN PRP
# Healthy male or female dogs were fasted for 8 hours prior to drawing blood; then 30 ml whole blood was collected using a butterfly needle and 30 cc plastic syringe with 3 ml of 0.129M buffered sodium citrate (3.8%). The syringe was rotated carefully as blood was drawn to mix the citrate. Platelet-rich plasma (PRP) was prepared by centrifugation at 975×g for 3.17 minutes at room temperature allowing the centrifuge to coast to a stop without braking. The PRP was removed from the blood with a plastic pipette and placed in a plastic capped, 50 mL Corning conical sterile centrifuge tube which was held at room temperature. Platelet poor plasma (PPP) was prepared by centrifuging the remaining blood at 2000×g for 15 minutes at room temperature allowing the centrifuge to coast to a stop without braking. The PRP was adjusted with PPP to a count of 2-3×10^8 platelets per mL. 400 uL of the PRP preparation and 50 uL of the compounds solution to be tested or saline were preincubated for […] at 37° C. in a […].). 50 uL of adenosine 5' diphosphate (ADP) (50 um final concentration) was added to the cuvettes and the aggregation was monitored for 1 minute. All compounds are tested in duplicate. Results are calculated as follows: Percent of control=[(maximal OD minus initial OD of compound) divided by (maximal OD minus initial OD of control saline)]×100. The % inhibition=100-(percent of control).
# The compounds tested and their median inhibitory concentrations (IC50) are recorded in Table I. IC50 's (dosage at which 50% of platelet aggregation is inhibited) were calculated by linear regression of the dose response curve.
SMILES,inhibition at 10 µM,IC50
"CC(C)[C@H](NC(=O)Nc1ccc(C(=N)N)cc1)C(=O)NC(CC(=O)O)c1cccnc1 (single isomer, unassigned) [10 (isomer 1)]",9%,–
"C[C@H](CNC(=O)Nc1ccc(C(=N)N)cc1)C(=O)NC(CC(=O)O)c1ccc2c(c1)OCO2 (single isomer, unassigned) [14 (isomer 1)]",–,2000 nM
N=C(N)c1ccc(NC(=O)NCCC(=O)NC(CC(=O)O)c2cccnc2)cc1 (stereo not shown) [Example 2],–,330 nM
N=C(N)c1ccc(NC(=O)NCC(=O)NC(CC(=O)O)c2cccnc2)cc1 (stereo not shown) [Example 4],–,260 nM
"CN=C(NCCC(=O)NCCC(=O)O)Nc1ccc(C(=N)N)cc1 [Example 6, β-[[3-[[[4-(aminoiminomethyl)phenyl]amino]N-methylcarbonylimide]aminopropanoyl]amino]propanoic acid]",5%,–
"N=C(N)c1ccc(NC(=S)NCCC(=O)NCCC(=O)O)cc1 [Example 8, β-[[3-[[[4(aminoiminomethyl)phenyl]amino]-thiocarbonyl]aminopropanoyl]amino]propanoic acid]",–,4900 nM
"N=C(N)c1ccc(NC(=O)NC(CC(=O)NCCC(=O)O)c2cccnc2)cc1 (stereo not drawn) [Example 12, β-[[3-[[[[4-(aminoiminomethyl)phenyl]amino]-carbonyl]amino](3-pyridine)propanoyl]amino]-propanoic acid]",–,6000 nM
